Consider one substance from patent US20200215099A1, “NON-ANTICOAGULANT SULFATED OR SULFONATED POLYSACCHARIDES” (Baxalta Incorporated, priority 2012, published 2020).

A short description of series [1]: Pharmacokinetics after intravenous administration. In kind it is in vivo, CD rats. As to the method: The preparations were either unfractionated (average MW of 63 kD) or fractionated by a filter method (lots A and B with an average MW of 12 and 14 kD, respectively). The substances were prepared in a physiological saline solution and injected at 5 mL/kg. Each group consisted of three animals. Blood sample were collected in the presence of citrate (ratio 1:9) before dosing and 5, 30 min, 1, 3, 6, and 10 h after the dosing. Platelet-poor plasma was prepared by two centrifugation steps at 3000 rpm. The plasma samples were analyzed for by a liquid-chromatography-mass spectroscopy, a substance-specific method for S-6-CI.

Series [2] concerns FVIII-inhibited guinea pigs. The series can be described thus: Ex-vivo whole blood TEG in FVIII-inhibited guinea pigs. Details: species or system guinea pig. As to the method: Male Dunkin Hartley guinea pigs were intravenously injected with a goat anti-human FVIII inhibitor plasma at a dose of 42 BU/kg (1.9 mL/kg) 45 min before sampling. After 40 min, NASP was intravenously administered to the animals at 0.05, 0.15, 0.45 or 1.35 mg/kg (N=5 per group). 300 U/kg FEIBA (Baxter, BioScience, Austria) served as a positive control and saline as a vehicle control. Shortly after the injection, the Vena cava was punctured and blood was collected in the presence of citrate (ratio 1:9) for whole blood TEG analysis. Measurements were performed using a thromboelastography (TEG) hemostasis analyzer 5000 (Haemonetics Corp, USA) at 37° C. Every blood sample was prepared by pre-warming 204 of a 0.2 M CaCl2) solution in a TEG cuvette at 37° C. adding 340 μL of blood, mixing, and then immediately starting the TEG recording. The measurement proceeded for at least 120 min. The TEG parameters of clotting time (R-time), rapidity of clot strengthening (angle) and maximum clot firmness (MA) were recorded. The primary endpoint R-time was plotted and the median value of the different dosing groups compared with each other.

For series [3], the system named is FVIII-inhibited human whole blood. Put plainly: Rotation thromboelastometry (ROTEM). To be noted: for Activity: normal blood 100, FVIII-inh. blood 0. As to the method:
NASPs (0.4-11 μg/mL) were studied in fresh citrated human whole blood by rotation thromboelastometry (ROTEM), an assay that allows continuous visco-elastic assessment of whole blood clot formation and firmness. Blood was incubated with anti-human FVIII plasma raised in goat (Baxter Bioscience, Austria) at 50 BU/mL to simulate hemophilic conditions. Clotting was triggered with 0.044 pM tissue factor (TF) (PRP reagent, Thrombinoscope BV) in the presence of 40 μg/mL CTI (Haematologic Technologies Inc., Essex Junction, Vt., USA). Then 300 μL of the pre-warmed (37° C.) FVIII-inhibited blood was recalcified with 20 μL of a 0.2 M CaCl2 solution. Clot formation was monitored using a ROTEM instrument (Pentapharm Munich, Germany) at 37° C. The final assay concentration of rTF was 44 fM. The ROTEM recording was started immediately and measured for at least 120 min. Each blood sample was analyzed in two independent measurements.
The thromboelastographic parameters of clotting time (CT), clot formation time (CFT) and maximum clot firmness (MCF) were recorded in accordance with the manufacturer's instructions. The first derivative of the thromboelastogram data is plotted to obtain a graph of velocity (mm/s) against time (s). From this graph, the maximum velocity (maxV) and the time at which the maximum velocity is reached (maxV-t) are also determined.

The next series deals with contact pathway. The series can be described thus: CAT in normal plasma with and without CTI. In kind it is biochemical. The conditions noted are these: normal plasma, 1 pM hTF, 4 μM PL, ±41 μg/mL CTI.

Where only a bound is given, the exact number is not on record here.

For orientation: half-life means how long it takes for the measured level to halve. For sulfated 6-carboxy-icodextrin, the “in vivo recovery (plasma concentration)” value in series [1] (5 min after i.v. dosing of 5 mg/kg) was 28 to 44 µg/mL. Further, in series [1] (i.v. 5 mg/kg, estimated from early time points), the half-life is 30 to 45 min. In addition, the “median R-time (clotting time)” value in series [2] (0.15 and 0.45 mg/kg i.v., no clotting after 2 hours without treatment) is listed as 110 min. In series [2] (TEG five minutes after i.v. administration, NASP at 0.15 and 0.45 mg/kg), the “procoagulant effect, reduction in R-time (in words)” value is listed as “procoagulant effect superior to vehicle control”. Moreover, in series [3] (+0.41 μg/ml), the CFT is on record as 388 s, the CT came to 1542 s, the MCF is 62 mm and the Activity is 108%. Moreover, in series [3] (+1.23 μg/ml), the CFT worked out at 172 s, the CT is on record as 1078 s, the MCF is 63.5 mm and the Activity was determined as 129%. In series [3] (+3.7 μg/ml), this substance showed a CFT of 223 s, a CT of 1152 s, an MCF of 63 mm and an Activity of 125%. In series [3] (+11.1 μg/ml), the CFT stood at 934 s, the CT amounted to 2526 s and the Activity is reported as 63%. In addition, in series [3] (ROTEM, 0.044 pM TF), the “restoration of coagulation (in words)” value is “restores coagulation in FVIII-inhibited whole blood”. Also, the “concentration activating the contact pathway” value with contact pathway is greater than 33 µg/mL.
